The target of the test is human F508del-CFTR (Homo sapiens, UniProt P13569, DEL508-508). The test is described as follows: F508del-CFTR cell surface expression (corrector activity), DiscoveRx ß-galactosidase complementation chemiluminescence assay in recombinant U2OS cell line.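 On all read-outs here: U2OS cells co-expressing ProLink-tagged F508del-CFTR and a membrane-anchored enzyme acceptor, where more surface CFTR restores β-galactosidase activity measured by chemiluminescence.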 Conditions: U2OS cell line, 16h compound incubation; for EC50: EC50, F508del-CFTR cell surface expression, geomean values; for Emax: U2OS, in relation to the Emax of the corrector lumacaftor (=100%), arithmetic mean values.

Molecules are shown by their SMILES.

human F508del-CFTR, sequence (P13569 with tags, fused parts or gaps DEL508-508): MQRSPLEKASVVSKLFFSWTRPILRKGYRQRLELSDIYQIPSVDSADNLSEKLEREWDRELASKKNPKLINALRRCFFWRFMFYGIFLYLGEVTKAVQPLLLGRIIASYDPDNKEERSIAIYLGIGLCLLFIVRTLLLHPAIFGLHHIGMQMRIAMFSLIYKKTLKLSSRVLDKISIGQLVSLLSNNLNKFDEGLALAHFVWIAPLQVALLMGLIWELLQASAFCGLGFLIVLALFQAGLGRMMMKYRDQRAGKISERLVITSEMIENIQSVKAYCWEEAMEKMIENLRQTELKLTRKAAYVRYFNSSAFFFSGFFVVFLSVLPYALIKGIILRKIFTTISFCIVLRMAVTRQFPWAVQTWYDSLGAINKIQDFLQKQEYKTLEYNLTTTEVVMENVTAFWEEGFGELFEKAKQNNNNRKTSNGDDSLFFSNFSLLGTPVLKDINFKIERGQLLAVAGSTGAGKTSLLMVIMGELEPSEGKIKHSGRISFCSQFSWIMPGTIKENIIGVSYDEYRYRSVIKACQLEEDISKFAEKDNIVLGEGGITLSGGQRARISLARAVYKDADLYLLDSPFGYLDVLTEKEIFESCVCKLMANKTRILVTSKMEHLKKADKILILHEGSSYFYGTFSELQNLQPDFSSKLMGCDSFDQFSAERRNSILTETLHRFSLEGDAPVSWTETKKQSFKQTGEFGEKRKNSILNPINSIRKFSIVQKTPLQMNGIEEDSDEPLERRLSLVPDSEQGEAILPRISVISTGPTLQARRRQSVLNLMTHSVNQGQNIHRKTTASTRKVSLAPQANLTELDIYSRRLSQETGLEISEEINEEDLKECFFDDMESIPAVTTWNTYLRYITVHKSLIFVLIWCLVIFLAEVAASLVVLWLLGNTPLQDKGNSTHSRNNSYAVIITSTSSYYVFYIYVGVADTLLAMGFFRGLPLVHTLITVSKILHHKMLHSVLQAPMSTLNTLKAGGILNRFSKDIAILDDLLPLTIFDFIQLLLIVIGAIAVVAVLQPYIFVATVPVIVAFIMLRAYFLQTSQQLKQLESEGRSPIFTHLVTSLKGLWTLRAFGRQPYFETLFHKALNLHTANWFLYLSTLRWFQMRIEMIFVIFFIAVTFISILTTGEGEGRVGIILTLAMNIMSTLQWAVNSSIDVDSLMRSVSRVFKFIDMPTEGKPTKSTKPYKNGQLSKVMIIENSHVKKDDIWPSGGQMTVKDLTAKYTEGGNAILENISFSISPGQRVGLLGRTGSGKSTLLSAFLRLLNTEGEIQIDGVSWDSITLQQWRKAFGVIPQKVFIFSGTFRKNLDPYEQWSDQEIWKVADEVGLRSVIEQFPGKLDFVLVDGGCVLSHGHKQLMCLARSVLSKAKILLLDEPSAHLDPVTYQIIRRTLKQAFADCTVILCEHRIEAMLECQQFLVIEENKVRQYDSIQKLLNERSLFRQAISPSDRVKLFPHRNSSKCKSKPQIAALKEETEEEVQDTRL

With `CC(C)C[C@H]1C(=O)N(CCC2CCCCC2)CC(=O)N[C@H](Cc2ccccc2)COc2ccncc2C(=O)N[C@H](C(=O)NCCc2ccc3c(c2)OCC3)CC(=O)N1C` [Example 262, (3R,9S,13S)-3-benzyl-7-(2-cyclohexylethyl)-N-(2-(2,3-dihydrobenzofuran-6-yl)ethyl)-9-isobutyl-10-methyl-5,8,11,15-tetraoxo-2,3,4,5,6,7,8,9,10,11,12,13,14,15-tetradecahydropyrido[3,4-p][1]oxa[4,7,10,14]tetraazacycloheptadecine-13-carboxamide], the EC50 was found to be 339 nM and the Emax came out at 231%.

As to `COc1cccc2c1C(=O)N[C@H](C(=O)NCCc1ccc3c(c1)OCO3)CC(=O)N(C)[C@@H](C)C(=O)N(CCC1CCCCC1)CC(=O)N[C@H](Cc1ccccc1)CO2` [Example 263, (3R,9S,13S)-N-(2-(benzo[d][1,3]dioxol-5-yl)ethyl)-3-benzyl-7-(2-cyclohexylethyl)-16-methoxy-9,10-dimethyl-5,8,11,15-tetraoxo-2,3,4,5,6,7,8,9,10,11,12,13,14,15-tetradecahydrobenzo[p][1]oxa[4,7,10,14]tetraazacycloheptadecine-13-carboxamide], the EC50 stood at 448 nM and the Emax was 140%.

As to `COc1cccc(CCNC(=O)[C@@H]2CC(=O)N(C)[C@@H](C)C(=O)N(CCC3CCCCC3)CC(=O)N[C@H](Cc3ccccc3)COc3cccc(OC)c3C(=O)N2)c1` [Example 264, (3R,9S,13S)-3-benzyl-7-(2-cyclohexylethyl)-16-methoxy-N-(3-methoxyphenethyl)-9,10-dimethyl-5,8,11,15-tetraoxo-2,3,4,5,6,7,8,9,10,11,12,13,14,15-tetradecahydrobenzo[p][1]oxa[4,7,10,14]tetraazacycloheptadecine-13-carboxamide], the EC50 came to 442 nM and the Emax came to 117%.

For `CC(C)C[C@H]1C(=O)N(CCC2CCCCC2)CC(=O)N[C@H](Cc2ccccc2)COc2cnccc2C(=O)N[C@H](C(=O)NCCc2ccc3c(c2)OCO3)CC(=O)N1C` [Example 265, (3R,9S,13S)-N-(2-(benzo[d][1,3]dioxol-5-yl)ethyl)-3-benzyl-7-(2-cyclohexylethyl)-9-isobutyl-10-methyl-5,8,11,15-tetraoxo-2,3,4,5,6,7,8,9,10,11,12,13,14,15-tetradecahydropyrido[4,3-p][1]oxa[4,7,10,14]tetraazacycloheptadecine-13-carboxamide], the EC50 worked out at 266 nM and the Emax was determined as 106%.

`COc1cccc(CCNC(=O)[C@@H]2CC(=O)N(C)[C@@H](CC(C)C)C(=O)N(CCC3CCCCC3)CC(=O)N[C@H](Cc3ccccc3)COc3cnccc3C(=O)N2)c1` [Example 266, (3R,9S,13S)-3-benzyl-7-(2-cyclohexylethyl)-9-isobutyl-N-(3-methoxyphenethyl)-10-methyl-5,8,11,15-tetraoxo-2,3,4,5,6,7,8,9,10,11,12,13,14,15-tetradecahydropyrido[4,3-p][1]oxa[4,7,10,14]tetraazacycloheptadecine-13-carboxamide]: the EC50 was 357 nM and the Emax was 136%.

Take `CC(C)C[C@H]1C(=O)N(CCC2CCCCC2)CC(=O)N[C@H](Cc2ccccc2)COc2ccc3ccccc3c2C(=O)N[C@H](C(=O)NCCc2ccc3c(c2)OCO3)CC(=O)N1C` [Example 267, (3S,7S,13R)-N-(2-(benzo[d][1,3]dioxol-5-yl)ethyl)-13-benzyl-9-(2-cyclohexylethyl)-7-isobutyl-6-methyl-1,5,8,11-tetraoxo-1,2,3,4,5,6,7,8,9,10,11,12,13,14-tetradecahydronaphtho[1,2-p][1]oxa[4,7,10,14]tetraazacycloheptadecine-3-carboxamide]: the EC50 stood at 107 nM and the Emax is 275%.

In the case of `COc1cccc(CCNC(=O)[C@@H]2CC(=O)N(C)[C@@H](CC(C)C)C(=O)N(CCC3CCCCC3)CC(=O)N[C@H](Cc3ccccc3)COc3ccc4ccccc4c3C(=O)N2)c1` [Example 268, (3S,7S,13R)-13-benzyl-9-(2-cyclohexylethyl)-7-isobutyl-N-(3-methoxyphenethyl)-6-methyl-1,5,8,11-tetraoxo-1,2,3,4,5,6,7,8,9,10,11,12,13,14-tetradecahydronaphtho[1,2-p][1]oxa[4,7,10,14]tetraazacycloheptadecine-3-carboxamide], the EC50 came to 100 nM and the Emax came out at 273%.

Take `CC(C)C[C@H]1C(=O)N(C)CC(=O)N[C@H](Cc2ccccc2)COc2ccc3ccccc3c2C(=O)N[C@H](C(=O)NCCc2ccc3c(c2)OCO3)CC(=O)N1C` [Example 269, (3S,7S,13R)-N-(2-(benzo[d][1,3]dioxol-5-yl)ethyl)-13-benzyl-7-isobutyl-6,9-dimethyl-1,5,8,11-tetraoxo-1,2,3,4,5,6,7,8,9,10,11,12,13,14-tetradecahydronaphtho[1,2-p][1]oxa[4,7,10,14]tetraazacycloheptadecine-3-carboxamide]: the EC50 was found to be 350 nM and the Emax came to 251%.

As to `Cc1cc2c(cn1)C(=O)N[C@H](C(=O)NCCc1ccc3c(c1)OCO3)CC(=O)N(C)[C@@H](CC(C)C)C(=O)N(CCC1CCCCC1)CC(=O)N[C@H](Cc1ccccc1)CO2` [Example 270, (3R,9S,13S)-N-(2-(benzo[d][1,3]dioxol-5-yl)ethyl)-3-benzyl-7-(2-cyclohexylethyl)-9-isobutyl-10,18-dimethyl-5,8,11,15-tetraoxo-2,3,4,5,6,7,8,9,10,11,12,13,14,15-tetradecahydropyrido[3,4-p][1]oxa[4,7,10,14]tetraazacycloheptadecine-13-carboxamide], the EC50 was found to be 423 nM and the Emax turned out to be 172%.

Consider `COc1cccc(CCNC(=O)[C@@H]2CC(=O)N(C)[C@@H](CC(C)C)C(=O)N(CCC3CCCCC3)CC(=O)N[C@H](Cc3ccccc3)COc3cc(C)ncc3C(=O)N2)c1` [Example 271, (3R,9S,13S)-3-benzyl-7-(2-cyclohexylethyl)-9-isobutyl-N-(3-methoxyphenethyl)-10,18-dimethyl-5,8,11,15-tetraoxo-2,3,4,5,6,7,8,9,10,11,12,13,14,15-tetradecahydropyrido[3,4-p][1]oxa[4,7,10,14]tetraazacycloheptadecine-13-carboxamide], for which the EC50 was 266 nM and the Emax came out at 185%.

`COc1cc(OC)c2c(c1)OC[C@@H](Cc1ccccc1)NC(=O)CN(CCC1CCCCC1)C(=O)[C@H](C)N(C)C(=O)C[C@@H](C(=O)NCCc1ccc3c(c1)OCO3)NC2=O` [Example 272, (3R,9S,13S)-N-(2-(benzo[d][1,3]dioxol-5-yl)ethyl)-3-benzyl-7-(2-cyclohexylethyl)-16,18-dimethoxy-9,10-dimethyl-5,8,11,15-tetraoxo-2,3,4,5,6,7,8,9,10,11,12,13,14,15-tetradecahydrobenzo[p][1]oxa[4,7,10,14]tetraazacycloheptadecine-13-carboxamide]: the EC50 turned out to be 374 nM and the maximal response (Emax) came to 176%.

For `COc1cccc(CCNC(=O)[C@@H]2CC(=O)N(C)[C@@H](C)C(=O)N(CCC3CCCCC3)CC(=O)N[C@H](Cc3ccccc3)COc3cc(OC)cc(OC)c3C(=O)N2)c1` [Example 273, (3R,9S,13S)-3-benzyl-7-(2-cyclohexylethyl)-16,18-dimethoxy-N-(3-methoxyphenethyl)-9,10-dimethyl-5,8,11,15-tetraoxo-2,3,4,5,6,7,8,9,10,11,12,13,14,15-tetradecahydrobenzo[p][1]oxa[4,7,10,14]tetraazacycloheptadecine-13-carboxamide], the EC50 was determined as 365 nM and the Emax turned out to be 169%.

On to `COc1cc(OC)c2c(c1)OC[C@@H](Cc1ccccc1)NC(=O)CN(CCC1CCCCC1)C(=O)[C@H](CC(C)C)N(C)C(=O)C[C@@H](C(=O)NCCc1ccc3c(c1)OCCC3)NC2=O` [Example 275, (3R,9S,13S)-3-benzyl-N-(2-(chroman-7-yl)ethyl)-7-(2-cyclohexylethyl)-9-isobutyl-16,18-dimethoxy-10-methyl-5,8,11,15-tetraoxo-2,3,4,5,6,7,8,9,10,11,12,13,14,15-tetradecahydrobenzo[p][1]oxa[4,7,10,14]tetraazacycloheptadecine-13-carboxamide], for which the EC50 was 148 nM and the Emax was 333%.

Regarding `COc1cc(OC)c2c(c1)OC[C@@H](Cc1ccccc1)NC(=O)CN(CCC1CCCCC1)C(=O)[C@H](CC(C)C)N(C)C(=O)C[C@@H](C(=O)NCCc1ccc3c(c1)OCC3)NC2=O` [Example 276, (3R,9S,13S)-3-benzyl-7-(2-cyclohexylethyl)-N-(2-(2,3-dihydrobenzofuran-6-yl)ethyl)-9-isobutyl-16,18-dimethoxy-10-methyl-5,8,11,15-tetraoxo-2,3,4,5,6,7,8,9,10,11,12,13,14,15-tetradecahydrobenzo[p][1]oxa[4,7,10,14]tetraazacycloheptadecine-13-carboxamide], the EC50 was 91 nM and the Emax amounted to 333%.

As for `COc1cccc(CCNC(=O)[C@@H]2CC(=O)N(C)[C@@H](CC(C)C)C(=O)N(C)CC(=O)N[C@H](Cc3ccccc3)COc3cccc(F)c3C(=O)N2)c1` [Example 277, (3R,9S,13S)-3-benzyl-16-fluoro-9-isobutyl-N-(3-methoxyphenethyl)-7,10-dimethyl-5,8,11,15-tetraoxo-2,3,4,5,6,7,8,9,10,11,12,13,14,15-tetradecahydrobenzo[p][1]oxa[4,7,10,14]tetraazacycloheptadecine-13-carboxamide], the EC50 was found to be 830 nM and the Emax was determined as 134%.

For the compound `CC(C)C[C@H]1C(=O)N(C)CC(=O)N[C@H](Cc2ccccc2)COc2cccc(F)c2C(=O)N[C@H](C(=O)NCCc2ccc3c(c2)OCO3)CC(=O)N1C` [Example 278, (3R,9S,13S)-N-(2-(benzo[d][1,3]dioxol-5-yl)ethyl)-3-benzyl-16-fluoro-9-isobutyl-7,10-dimethyl-5,8,11,15-tetraoxo-2,3,4,5,6,7,8,9,10,11,12,13,14,15-tetradecahydrobenzo[p][1]oxa[4,7,10,14]tetraazacycloheptadecine-13-carboxamide], the EC50 came to 709 nM and the Emax came out at 167%.

These data come from patent US20240208992A1, “MACROCYCLES AS CFTR MODULATORS” (Idorsia Pharmaceuticals Ltd, priority 2021, published 2024).
